Experimental data from BindingDB's records for doi:10.3109/14756366.2012.753591 (Gyeongsang National University, 2014).

What was measured:
[1] = biological target: Replicase polyprotein 1a (Severe acute respiratory syndrome coronavirus, UniProt P0C6U8); assay: SARS-CoV PLpro Inhibition Assay; settings: pH 8
Method: (§1) Reactions were performed in a total volume of […], which contained thefollowing components: 20mM Tris-buffer, pH 8.0, 10mM DTT, […], 2% DMSO and varying concentrations of inhibitor ([…]). Assays were initiated with the addition of PLpro to produce a final enzyme concentration of 60 nM.

[2] = biological target: Replicase polyprotein 1a/Z-RLRGG-AMC (Severe acute respiratory syndrome coronavirus, UniProt P0C6U8); assay: SARS-CoV PLpro Inhibition Assay; settings: pH 8
Method: as §1

CC(C)=CCc1c(O)ccc(C(=O)/C=C/c2ccc(O)cc2)c1O [Isobacachalcone]
IC50 [1]: 7.3 µM
Ki [1]: 4.9 µM
Ki [2]: 9.1 µM

O=c1ccc2ccc3occc3c2o1 [2H-furo[2,3-h]chromen-2-one]
IC50 [1]: > 150 µM

CC(C)=CCc1cc(-c2coc3cc(O)ccc3c2=O)ccc1O [Neobavaisoflavone (2)]
IC50 [1]: 18.3 µM
Ki [1]: 9.4 µM

O=c1ccc2cc3ccoc3cc2o1 [7H-furo[3,2-g]chromen-7-one]
IC50 [1]: > 150 µM

CC(C)=CCc1cc2c(cc1O)oc(=O)c1c3ccc(O)cc3oc21 [Psoralidin (5)]
IC50 [1]: 4.2 µM
Ki [1]: 1.7 µM
Ki [2]: 4.2 µM

COc1cc2c(cc1CC=C(C)C)C(=O)CC(c1ccc(O)cc1)O2 (stereo unspecified) [Bavachinin (1)]
IC50 [1]: 38.4 µM
Ki [1]: 18.4 µM

CC(C)=CCC/C(C)=C\Cc1cc(-c2coc3cc(O)ccc3c2=O)ccc1O [Corylifol A (6)]
IC50 [1]: 32.3 µM
Ki [1]: 11.4 µM

COc1cc(O)c(C(=O)/C=C/c2ccc(O)cc2)cc1CC=C(C)C [4'-O-methylbavachalcone (4)]
IC50 [1]: 10.1 µM
Ki [1]: 4.6 µM
